According to ChEMBL document CHEMBL5260850, “The exploration of aza-quinolines as hematopoietic prostaglandin D synthase (H-PGDS) inhibitors with low brain exposure” (Bioorg Med Chem, 2020):
Activity calls are given as the source filed them. The rule behind the calls is not given here.

What was measured:
[1] = Genotoxicity in Salmonella typhimurium in absence of metabolic activation by Ames test; type: toxicity; conditions: salmonella enterica subsp. enterica serovar typhimurium
[2] = Dose normalized AUC in mouse at 3 mg/kg, po; type: ADME, organism-based; parameters: unit not given here; conditions: in vivo
[3] = Inhibition of m-PGES (unknown origin); parameters: species or system Homo sapiens
[4] = Toxicity in dog assessed as clinical pathological changes by measuring increase in hepatobiliary parameters at 75 mg/kg/day, po QD for 4 days; type: organism-based, Canis lupus familiaris; conditions: in vivo, 96 h, time 4 day
[5] = Terminal half life in mouse at 1 mg/kg, iv; type: ADME, organism-based; conditions: in vivo, read-out: beta t1/2 (converted)
[6] = AUC in dog at 30 mg/kg/day, po QD for 4 days; type: ADME, organism-based, Canis lupus familiaris; parameters: dose 30 mg/kg/day, time 4 day, route po; conditions: in vivo
[7] = AUC in Wistar Han rat at 100 mg/kg/day, po QD for 7 days; type: ADME, organism-based; parameters: time 7 day, dose 100 mg/kg/day, route po; conditions: in vivo
[8] = Half life in mouse liver microsomes pretreated for 5 mins followed by incubation with NADP for 30 secs and measured upto 45 mins by LC-MS/MS analysis; type: ADME, Microsome; conditions: time 3030 sec
[9] = target: Kappa-type opioid receptor (Homo sapiens) (UniProt P41145); conditions: dose <= 10000.0 nM
Description: Inhibition of kappa opioid receptor (unknown origin) upto 10000 nM

[10] = target: Alpha-2C adrenergic receptor (Homo sapiens) (UniProt P18825); conditions: dose <= 10000.0 nM
Description: Inhibition of alpha2C adrenergic receptor (unknown origin) upto 10000 nM

[11] = target: Potassium voltage-gated channel subfamily KQT member 1 (Homo sapiens, UniProt P51787); assay: Inhibition of Kv7.1 channel (unknown origin) upto 10000 nM; conditions: 10 µM
[12] = target: Mu-type opioid receptor (Homo sapiens) (UniProt P35372); conditions: dose <= 10000.0 nM
Description: Inhibition of mu opioid receptor (unknown origin) upto 10000 nM

[13] = AUC in dog at 75 mg/kg/day, po QD for 4 days; type: ADME, organism-based, Canis lupus familiaris; parameters: time 4 day, dose 75 mg/kg/day, route po; conditions: in vivo
Albumin = Albumin (Homo sapiens, UniProt P02768); assay: Protein binding in human serum albumin by HPLC analysis; type: ADME, cell-free; conditions: read-out: PB (converted)
[14] = Selectivity ratio of EC50 for inhibition of H-PGDS in rat RBL cells assessed as reduction in A23187-induced PGD2 production to EC50 for anti-inflammatory activity against po dosed C57BL/6J mouse assessed as reduction in compound 48/80-induced PGD2 release into peritoneal lavage fluid
[15] = Volume of distribution at steady state in rat at 0.4 mg/kg, iv; type: ADME, organism-based; conditions: in vivo, read-out: Vdss
[16] = Toxicity in compound 48/80-treated C57BL/6J mouse assessed as seizures administered orally with compound and 1 hr later treated with compound 48/80 for 7 mins; conditions: in vivo, po, 1.117 h, time 67 min
[17] = target: Sodium channel protein type 5 subunit alpha (Homo sapiens, UniProt Q14524); assay: Inhibition of Nav1.5 channel (unknown origin) upto 10000 nM; conditions: 10 µM
[18] = Selectivity ratio of EC50 for inhibition of H-PGDS in rat RBL cells assessed as reduction in A23187-induced PGD2 production to EC50 for anti-inflammatory activity against po dosed C57BL6/N mouse assessed as reduction in LPS-induced PGD2 level in plasma
[19] = target: Hematopoietic prostaglandin D synthase (Homo sapiens, UniProt O60760); assay: Inhibition of human H-PGDS expressed in Escherichia coli BL21 DE3 cells assessed as reduction in PGD2 production using PGH2 as substrate by RapidFire High Throughput Mass spectrometry
Mus musculus [20] = assay: Anti-inflammatory activity against C57BL6/N mouse assessed as EC50 required for reduction in LPS-induced PGD2 level in skeletal muscle administered orally with compound and 1 hr later treated with LPS and measured after 30 mins by LC-MS/MS analysis; type: functional, organism-based, C57BL/6N
[21] = Oral bioavailability in rat at 2.4 mg/kg; type: ADME, organism-based; conditions: in vivo
[22] = Ratio of drug level in muscle to plasma in C57BL/6N mouse administered orally for 10 mins prior to unilateral eccentric contraction and QD for 16 days thereafter; type: toxicity, cell-free, Muscle tissue/plasma; conditions: route po, time 16 day
[23] = target: Vasopressin V1a receptor (Homo sapiens) (UniProt P37288); conditions: dose <= 10000.0 nM
Description: Inhibition of V1A receptor (unknown origin) upto 10000 nM

[24] = Toxicity in C57BL/6N mouse assessed as seizures administered orally for 10 mins prior to unilateral eccentric contraction and QD for 16 days thereafter; conditions: in vivo, po, 384 h, time 16 day
[25] = target: Aryl hydrocarbon receptor (Homo sapiens, UniProt P35869); assay: Inhibition of AhR (unknown origin) upto 10000 nM; conditions: 10 µM
[26] = target: Muscarinic acetylcholine receptor M2 (Homo sapiens) (UniProt P08172); conditions: dose <= 10000.0 nM
Description: Inhibition of muscarinic M2 receptor (unknown origin) upto 10000 nM

[27] = Toxicity in dog assessed as hemorrhage of zona fasciculata in adrenal gland at 75 mg/kg/day, po QD for 4 days by microscopic analysis; type: organism-based, Canis lupus familiaris; conditions: in vivo, 96 h, time 4 day
[28] = target: Adenosine receptor A2a (Homo sapiens) (UniProt P29274); conditions: dose <= 10000.0 nM
Description: Inhibition of adenosine A2A receptor (unknown origin) upto 10000 nM

Mus musculus [29] = assay: Anti-inflammatory activity against C57BL6/N mouse assessed as reduction in LPS-induced PGD2 level in plasma administered orally with compound and 1 hr later treated with LPS and measured after 30 mins by LC-MS/MS analysis; type: functional; conditions: route po, time 1.5 hrs
[30] = target: D(1A) dopamine receptor (Homo sapiens) (UniProt P21728); conditions: dose <= 10000.0 nM
Description: Inhibition of dopamine D1 receptor (unknown origin) upto 10000 nM

[31] = target: Solute carrier organic anion transporter family member 1B1 (Homo sapiens, UniProt Q9Y6L6); assay: Inhibition of OATP1B1 (unknown origin) upto 10000 nM; conditions: 10 µM
[32] = Cmax in Wistar Han rat at 100 mg/kg/day, po QD for 7 days; type: ADME, organism-based; parameters: dose 100 mg/kg/day, time 7 day, route po; conditions: in vivo
Mus musculus [33] = assay: Anti-inflammatory activity against C57BL6/N mouse assessed as reduction in LPS-induced PGD2 level in skeletal muscle administered orally with compound and 1 hr later treated with LPS and measured after 30 mins by LC-MS/MS analysis; type: functional; conditions: route po, time 1.5 hrs
[34] = Toxicity in dog assessed as tolerance upto 30 mg/kg/day, po QD for 4 days; type: organism-based, Canis lupus familiaris; conditions: in vivo, 96 h, time 4 day
[35] = Toxicity in dog assessed as decrease in body temperature at 75 mg/kg/day, po QD for 4 days; type: organism-based, Canis lupus familiaris; conditions: in vivo, 96 h, time 4 day
[36] = AUC in Wistar Han rat at 30 mg/kg/day, po QD for 7 days; type: ADME, organism-based; parameters: dose 30 mg/kg/day, time 7 day, route po; conditions: in vivo
[37] = AUC in dog at 10 mg/kg/day, po QD for 4 days; type: ADME, organism-based, Canis lupus familiaris; parameters: dose 10 mg/kg/day, time 4 day, route po; conditions: in vivo
[38] = Cmax in dog at 10 mg/kg/day, po QD for 4 days; type: ADME, organism-based, Canis lupus familiaris; parameters: dose 10 mg/kg/day, time 4 day, route po; conditions: in vivo
[39] = target: Prostaglandin G/H synthase 2 (Homo sapiens) (UniProt P35354); conditions: dose <= 10000.0 nM
Description: Inhibition of COX-2 (unknown origin) upto 10000 nM

[40] = target: 3',5'-cyclic-AMP phosphodiesterase 4B (Homo sapiens) (UniProt Q07343); conditions: dose <= 10000.0 nM
Description: Inhibition of PDE4B (unknown origin) upto 10000 nM

[41] = Free Cmax in eccentric contraction-induced muscle injury C57BL/6N mouse model administered orally 10 mins prior to unilateral eccentric contraction and QD for 16 days thereafter; type: ADME; conditions: in vivo, po, 384 h, time 16 day
[42] = Toxicity in Wistar Han rat assessed as increased lymphocytolysis in thymus at 100 mg/kg/day, po administered QD for 7 days by microscopic analysis; type: organism-based; conditions: in vivo, 168 h, time 7 day

Sequence of Alpha-2C adrenergic receptor (Homo sapiens) (P18825 whole entry): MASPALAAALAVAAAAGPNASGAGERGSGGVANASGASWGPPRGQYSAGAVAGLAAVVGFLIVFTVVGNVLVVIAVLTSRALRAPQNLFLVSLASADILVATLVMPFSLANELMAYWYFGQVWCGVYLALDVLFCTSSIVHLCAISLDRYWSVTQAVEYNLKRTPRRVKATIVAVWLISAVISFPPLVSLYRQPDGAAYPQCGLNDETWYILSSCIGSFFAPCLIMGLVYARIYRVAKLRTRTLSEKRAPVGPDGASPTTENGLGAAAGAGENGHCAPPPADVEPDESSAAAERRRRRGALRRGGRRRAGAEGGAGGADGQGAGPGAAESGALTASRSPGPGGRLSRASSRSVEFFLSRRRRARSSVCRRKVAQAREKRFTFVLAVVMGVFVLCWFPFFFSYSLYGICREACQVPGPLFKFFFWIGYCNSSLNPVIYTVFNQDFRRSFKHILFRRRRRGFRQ
Sequence of Mu-type opioid receptor (Homo sapiens) (P35372 whole entry): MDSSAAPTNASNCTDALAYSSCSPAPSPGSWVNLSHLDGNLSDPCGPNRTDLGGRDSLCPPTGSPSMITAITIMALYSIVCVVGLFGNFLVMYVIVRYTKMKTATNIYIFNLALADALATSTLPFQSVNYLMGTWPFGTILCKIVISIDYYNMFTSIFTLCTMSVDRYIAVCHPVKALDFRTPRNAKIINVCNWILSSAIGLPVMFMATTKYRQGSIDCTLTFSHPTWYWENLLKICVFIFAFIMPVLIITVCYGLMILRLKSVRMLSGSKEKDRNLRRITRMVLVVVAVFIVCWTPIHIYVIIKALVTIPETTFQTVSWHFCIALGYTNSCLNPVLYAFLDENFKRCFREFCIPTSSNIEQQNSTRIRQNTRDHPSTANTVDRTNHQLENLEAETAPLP
Sequence of Hematopoietic prostaglandin D synthase (O60760 whole entry): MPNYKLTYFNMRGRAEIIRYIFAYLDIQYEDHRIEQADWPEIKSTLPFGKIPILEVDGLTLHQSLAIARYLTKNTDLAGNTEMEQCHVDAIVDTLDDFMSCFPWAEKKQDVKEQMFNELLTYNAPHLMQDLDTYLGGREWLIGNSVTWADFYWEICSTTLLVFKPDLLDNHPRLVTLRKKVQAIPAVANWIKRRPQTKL
Sequence of Adenosine receptor A2a (Homo sapiens) (P29274 whole entry): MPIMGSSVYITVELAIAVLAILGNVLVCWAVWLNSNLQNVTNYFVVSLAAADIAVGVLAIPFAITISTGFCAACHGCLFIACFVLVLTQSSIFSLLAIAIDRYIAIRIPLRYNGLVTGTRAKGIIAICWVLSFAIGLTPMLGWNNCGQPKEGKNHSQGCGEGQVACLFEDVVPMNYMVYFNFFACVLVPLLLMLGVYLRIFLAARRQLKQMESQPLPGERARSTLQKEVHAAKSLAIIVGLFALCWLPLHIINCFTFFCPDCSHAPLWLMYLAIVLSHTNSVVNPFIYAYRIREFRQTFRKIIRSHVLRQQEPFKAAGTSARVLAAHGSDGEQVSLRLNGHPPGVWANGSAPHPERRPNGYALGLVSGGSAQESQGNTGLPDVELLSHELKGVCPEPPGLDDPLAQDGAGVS
Sequence of Albumin (P02768 whole entry): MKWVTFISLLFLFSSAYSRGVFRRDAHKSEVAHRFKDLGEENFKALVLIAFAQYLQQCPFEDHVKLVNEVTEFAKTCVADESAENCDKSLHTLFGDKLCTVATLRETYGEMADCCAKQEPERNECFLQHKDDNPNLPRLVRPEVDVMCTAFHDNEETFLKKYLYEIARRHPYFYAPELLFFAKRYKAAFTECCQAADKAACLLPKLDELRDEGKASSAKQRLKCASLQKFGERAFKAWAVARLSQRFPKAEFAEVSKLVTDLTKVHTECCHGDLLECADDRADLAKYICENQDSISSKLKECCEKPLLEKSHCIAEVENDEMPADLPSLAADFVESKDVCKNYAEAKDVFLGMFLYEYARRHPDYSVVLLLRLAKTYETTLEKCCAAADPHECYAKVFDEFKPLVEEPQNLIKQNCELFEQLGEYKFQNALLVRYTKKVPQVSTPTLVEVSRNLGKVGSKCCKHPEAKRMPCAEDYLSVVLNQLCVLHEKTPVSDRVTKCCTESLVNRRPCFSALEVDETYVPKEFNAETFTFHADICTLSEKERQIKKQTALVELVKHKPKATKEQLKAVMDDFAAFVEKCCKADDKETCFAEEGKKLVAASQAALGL
Sequence of Aryl hydrocarbon receptor (P35869 whole entry): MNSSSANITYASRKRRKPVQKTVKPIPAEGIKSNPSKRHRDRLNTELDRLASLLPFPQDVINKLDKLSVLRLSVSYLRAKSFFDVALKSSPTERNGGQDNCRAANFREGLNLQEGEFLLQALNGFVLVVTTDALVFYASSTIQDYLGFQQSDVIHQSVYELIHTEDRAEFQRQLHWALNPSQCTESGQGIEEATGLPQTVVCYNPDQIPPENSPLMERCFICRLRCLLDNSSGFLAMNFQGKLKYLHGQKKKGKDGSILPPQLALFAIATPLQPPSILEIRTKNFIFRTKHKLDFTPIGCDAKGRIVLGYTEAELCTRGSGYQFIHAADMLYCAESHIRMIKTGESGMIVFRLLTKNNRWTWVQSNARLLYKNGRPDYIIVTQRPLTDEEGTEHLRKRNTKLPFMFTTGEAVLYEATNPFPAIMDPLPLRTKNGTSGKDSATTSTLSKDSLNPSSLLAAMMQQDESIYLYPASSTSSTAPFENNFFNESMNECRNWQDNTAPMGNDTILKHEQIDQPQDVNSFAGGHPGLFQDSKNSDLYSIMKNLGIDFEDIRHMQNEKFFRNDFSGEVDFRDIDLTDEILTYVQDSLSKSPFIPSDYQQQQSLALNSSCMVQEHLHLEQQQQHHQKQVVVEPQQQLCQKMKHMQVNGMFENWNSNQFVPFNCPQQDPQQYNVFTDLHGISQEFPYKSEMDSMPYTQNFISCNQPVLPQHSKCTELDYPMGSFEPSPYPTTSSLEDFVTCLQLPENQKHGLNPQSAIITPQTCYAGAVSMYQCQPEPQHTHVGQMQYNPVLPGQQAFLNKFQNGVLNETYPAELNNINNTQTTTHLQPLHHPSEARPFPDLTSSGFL
Sequence of Sodium channel protein type 5 subunit alpha (Q14524 whole entry): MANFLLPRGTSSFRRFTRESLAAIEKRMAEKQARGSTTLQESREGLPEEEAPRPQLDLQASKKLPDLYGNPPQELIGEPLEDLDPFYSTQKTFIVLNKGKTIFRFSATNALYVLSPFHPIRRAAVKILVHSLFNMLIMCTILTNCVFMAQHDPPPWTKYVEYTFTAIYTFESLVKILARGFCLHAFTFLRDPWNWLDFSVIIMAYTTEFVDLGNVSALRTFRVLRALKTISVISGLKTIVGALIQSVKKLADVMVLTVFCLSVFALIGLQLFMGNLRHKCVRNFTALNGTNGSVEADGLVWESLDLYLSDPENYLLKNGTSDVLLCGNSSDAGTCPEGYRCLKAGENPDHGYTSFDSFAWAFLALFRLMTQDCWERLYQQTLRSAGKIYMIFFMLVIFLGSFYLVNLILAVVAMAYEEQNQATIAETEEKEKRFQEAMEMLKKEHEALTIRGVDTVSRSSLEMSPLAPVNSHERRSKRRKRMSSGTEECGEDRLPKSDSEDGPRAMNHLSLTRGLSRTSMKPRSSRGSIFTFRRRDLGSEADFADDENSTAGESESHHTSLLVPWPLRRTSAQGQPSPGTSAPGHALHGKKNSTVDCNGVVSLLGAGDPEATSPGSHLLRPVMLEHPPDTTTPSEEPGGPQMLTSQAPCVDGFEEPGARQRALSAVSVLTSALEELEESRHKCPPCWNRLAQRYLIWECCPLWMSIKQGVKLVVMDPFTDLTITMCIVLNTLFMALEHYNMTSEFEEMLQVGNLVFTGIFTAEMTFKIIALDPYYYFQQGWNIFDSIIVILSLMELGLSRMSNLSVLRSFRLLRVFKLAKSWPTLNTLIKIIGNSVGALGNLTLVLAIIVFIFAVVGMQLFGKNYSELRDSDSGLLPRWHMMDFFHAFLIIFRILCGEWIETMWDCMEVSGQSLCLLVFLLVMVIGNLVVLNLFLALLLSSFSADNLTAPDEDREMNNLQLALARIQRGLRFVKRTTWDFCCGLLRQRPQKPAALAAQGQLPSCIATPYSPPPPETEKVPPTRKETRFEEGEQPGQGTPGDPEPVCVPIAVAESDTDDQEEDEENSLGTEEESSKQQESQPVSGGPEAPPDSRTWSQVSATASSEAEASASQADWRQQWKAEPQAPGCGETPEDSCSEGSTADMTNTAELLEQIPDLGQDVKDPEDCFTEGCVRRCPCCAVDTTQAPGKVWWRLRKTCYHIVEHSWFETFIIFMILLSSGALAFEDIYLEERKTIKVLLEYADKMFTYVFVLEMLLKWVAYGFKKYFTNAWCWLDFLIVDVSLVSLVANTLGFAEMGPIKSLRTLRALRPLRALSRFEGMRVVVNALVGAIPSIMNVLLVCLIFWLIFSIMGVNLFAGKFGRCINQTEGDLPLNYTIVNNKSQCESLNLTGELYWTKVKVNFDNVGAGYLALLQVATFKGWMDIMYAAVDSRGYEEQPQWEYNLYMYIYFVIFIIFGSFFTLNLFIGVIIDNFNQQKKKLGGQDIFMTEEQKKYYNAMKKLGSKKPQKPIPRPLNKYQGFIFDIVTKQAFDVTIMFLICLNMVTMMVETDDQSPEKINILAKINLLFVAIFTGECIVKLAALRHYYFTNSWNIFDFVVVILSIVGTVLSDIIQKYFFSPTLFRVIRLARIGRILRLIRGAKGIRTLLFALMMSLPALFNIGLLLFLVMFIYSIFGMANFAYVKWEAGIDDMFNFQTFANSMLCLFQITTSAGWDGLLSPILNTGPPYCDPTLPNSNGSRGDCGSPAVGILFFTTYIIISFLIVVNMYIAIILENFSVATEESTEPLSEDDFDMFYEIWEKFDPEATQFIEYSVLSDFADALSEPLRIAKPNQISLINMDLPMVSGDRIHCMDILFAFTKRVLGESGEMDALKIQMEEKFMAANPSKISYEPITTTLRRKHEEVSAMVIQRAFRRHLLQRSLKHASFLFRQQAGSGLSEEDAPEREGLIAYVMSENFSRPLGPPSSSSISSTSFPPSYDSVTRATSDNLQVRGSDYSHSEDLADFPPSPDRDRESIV

Compound: CC(C)(O)[C@H]1CC[C@H](NC(=O)c2cnc3nc(C4CC4)ccc3c2)CC1
- Activity [1]: Non-Toxic
- AUC/dose [2]: 1320
- IC50 [3]: > 100 µM
- Activity [4]: Toxic
- half-life [5]: 174 min
- AUC at 96 h [6]: 430 µg·h/mL
- AUC at 168 h [7]: 820 µg·h/mL
- half-life [8]: > 180 min
- inhibition [9]: inactive
- inhibition [10]: inactive
- inhibition (INH) [11]: Not Active
- inhibition [12]: inactive
- AUC at 96 h [13]: 3600 µg·h/mL
- fraction unbound (Albumin): 0.2
- Ratio EC50 [14]: 10
- Vd [15]: 1.6 L/kg
- Activity [16]: Non-Toxic
- inhibition (INH) [17]: Not Active
- Ratio EC50 [18]: 10
- IC50 [19]: 9.4 nM
- EC50 (Mus musculus [20]): 1.4 ng/g
- bioavailability [21]: 100%
- Kp at 384 h [22]: 0.56
- inhibition [23]: inactive
- Activity [24]: Non-Toxic
- inhibition (INH) [25]: Not Active
- inhibition [26]: inactive
- Activity [27]: Toxic
- inhibition [28]: inactive
- ED50 (Mus musculus [29]): 3.1 µg/kg
- inhibition [30]: inactive
- inhibition (INH) [31]: Not Active
- Cmax [32]: 57 µg/mL
- ED50 (Mus musculus [33]): 0.0138 mg/kg
- Activity [34]: Non-Toxic
- Activity [35]: Toxic
- AUC at 168 h [36]: 410 µg·h/mL
- AUC at 96 h [37]: 120 µg·h/mL
- Cmax [38]: 13000 ng/mL
- inhibition [39]: inactive
- inhibition [40]: inactive
- fCmax [41]: 370 ng/mL
- Activity [42]: Toxic
